Assay results from PubChem BioAssay AID2719 (The Scripps Research Institute Molecular Screening Center, 2010).

Biological target: Mucolipin-3 (Homo sapiens) (UniProt Q8TDD5)
Assay: TRPML3 and related TRP channel activation – cell-based, HEK293 transfected, Fura-2 ratio imaging, selectivity assay for selective TRPML3 agonist project, profiling panel (AID 2719)
Conditions: fura-2 calcium ratio, at 10 µM, stronger effect = higher value

Chain of Mucolipin-3 (Homo sapiens) (Q8TDD5 whole entry, looked up): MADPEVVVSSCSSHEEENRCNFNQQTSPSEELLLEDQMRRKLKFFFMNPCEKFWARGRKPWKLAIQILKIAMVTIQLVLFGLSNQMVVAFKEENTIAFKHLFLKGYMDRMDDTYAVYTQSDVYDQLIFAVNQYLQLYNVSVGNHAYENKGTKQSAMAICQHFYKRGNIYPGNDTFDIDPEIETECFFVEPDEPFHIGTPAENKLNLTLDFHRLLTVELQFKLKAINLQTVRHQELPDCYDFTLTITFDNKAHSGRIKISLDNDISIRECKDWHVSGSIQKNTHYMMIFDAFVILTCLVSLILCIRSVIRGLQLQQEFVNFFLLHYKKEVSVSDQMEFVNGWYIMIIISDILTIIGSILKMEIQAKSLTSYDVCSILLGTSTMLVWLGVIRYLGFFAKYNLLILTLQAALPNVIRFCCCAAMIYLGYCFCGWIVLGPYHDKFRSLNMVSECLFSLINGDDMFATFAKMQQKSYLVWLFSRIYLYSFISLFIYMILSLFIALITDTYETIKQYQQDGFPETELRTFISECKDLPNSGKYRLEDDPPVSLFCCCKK

Row | fura-2 ratio change (340/380) | Compound
1 | 0.52 | CC1CCN(S(=O)(=O)c2ccc(C(C)C)cc2)CC1
2 | 0.72 | Cc1ccc(S(=O)(=O)n2nccc2-c2c(-c3ccc(Cl)cc3)noc2C)cc1
3 | 1 | CCOc1ccc(S(=O)(=O)N2CCCCCC2)c2ccccc12
